According to the supplement of paper PMC13380429:

Tests used:
Details in all cases: 72 h
U2OS [1] = assay: relative viability EC50 (midpoint between 100% and the lowest measured viability); higher = less toxic
Caco-2 [2] = assay: as above
Vero E6 [3] = assay: as above
HepG2 [4] = assay: as above
Calu-3 [5] = assay: as above
U2OS [6] = assay: drug sensitivity score (DSS) for viability; higher = more toxic; extreme values may be limits of the assay
Caco-2 [7] = assay: as above
Vero E6 [8] = assay: as above
HepG2 [9] = assay: as above
Calu-3 [10] = assay: as above
U2OS [11] = assay: cell viability relative to DMSO; higher = less toxic
Caco-2 [12] = assay: as above
Vero E6 [13] = assay: as above
HepG2 [14] = assay: as above
Calu-3 [15] = assay: as above

Compound	relative viability EC50 (U2OS [1])	relative viability EC50 (Caco-2 [2])	relative viability EC50 (Vero E6 [3])	relative viability EC50 (HepG2 [4])	relative viability EC50 (Calu-3 [5])	drug sensitivity score (U2OS [6])	drug sensitivity score (Caco-2 [7])	drug sensitivity score (Vero E6 [8])	drug sensitivity score (HepG2 [9])	drug sensitivity score (Calu-3 [10])	cell viability (U2OS [11]; 1 nM)	cell viability (U2OS [11]; 10 nM)	cell viability (U2OS [11]; 100 nM)	cell viability (U2OS [11]; 1000 nM)	cell viability (U2OS [11]; 10000 nM)	cell viability (Caco-2 [12]; 1 nM)	cell viability (Caco-2 [12]; 10 nM)	cell viability (Caco-2 [12]; 100 nM)	cell viability (Caco-2 [12]; 1000 nM)	cell viability (Caco-2 [12]; 10000 nM)	cell viability (Vero E6 [13]; 1 nM)	cell viability (Vero E6 [13]; 10 nM)	cell viability (Vero E6 [13]; 100 nM)	cell viability (Vero E6 [13]; 1000 nM)	cell viability (Vero E6 [13]; 10000 nM)	cell viability (HepG2 [14]; 1 nM)	cell viability (HepG2 [14]; 10 nM)	cell viability (HepG2 [14]; 100 nM)	cell viability (HepG2 [14]; 1000 nM)	cell viability (HepG2 [14]; 10000 nM)	cell viability (Calu-3 [15]; 1 nM)	cell viability (Calu-3 [15]; 10 nM)	cell viability (Calu-3 [15]; 100 nM)	cell viability (Calu-3 [15]; 1000 nM)	cell viability (Calu-3 [15]; 10000 nM)
COC(=O)N[C@H](C(=O)N1CC2(CC2)C[C@H]1c1nc(-c2ccc3c(c2)C(F)(F)c2cc(-c4ccc5[nH]c([C@@H]6[C@H]7CC[C@H](C7)N6C(=O)[C@@H](NC(=O)OC)C(C)C)nc5c4)ccc2-3)c[nH]1)C(C)C [ledipasvir]	> 10 µM	> 10 µM	> 10 µM	> 10 µM	> 10 µM	0.5	0	0	0	0	100%	99%	101%	94.2%	86.6%	93.8%	93.5%	98.1%	94.5%	87.5%	94.3%	99.7%	91.9%	99.7%	108%	97%	109%	96.6%	96.7%	101%	95.9%	106%	108%	110%	97.7%
CC(C)[C@@H]1CC[C@@H](C)C[C@H]1O [levomenthol]	> 10 µM	> 10 µM	> 10 µM	> 10 µM	> 10 µM	0	0	0	0	0	105%	101%	101%	101%	95.5%	93.3%	84.4%	84.7%	94.4%	104%	95.3%	108%	101%	91.2%	94.9%	102%	92.8%	101%	104%	103%	98%	92.9%	88.9%	96.8%	90.5%
CC1(C)O[C@H]2CC(=O)OC[C@]23[C@H]2CC[C@@]4(C)[C@H](c5ccoc5)OC(=O)[C@H]5O[C@]54[C@]2(C)C(=O)C[C@@H]13 [limonin]	> 10 µM	> 10 µM	> 10 µM	> 10 µM	> 10 µM	0	0	0	0	0	95.6%	98.6%	107%	99%	100%	97.5%	95.8%	106%	98.5%	105%	97.1%	97.1%	93.7%	98.6%	104%	102%	105%	91.5%	111%	97.2%	104%	89.5%	109%	99.6%	102%
Nc1ccc(O)c(C(=O)O)c1 [mesalazine]	> 10 µM	> 10 µM	> 10 µM	> 10 µM	> 10 µM	0	0	0	0	0	103%	101%	103%	96.8%	104%	112%	98.6%	109%	97.7%	100%	105%	104%	103%	102%	92.2%	112%	100%	103%	104%	97.3%	109%	100%	107%	96.5%	102%
CCC1(CC)C(=O)NC(=O)N(C)C1=O [metharbital]	> 10 µM	> 10 µM	> 10 µM	> 10 µM	> 10 µM	0	0	0	0	0	100%	93.4%	99.1%	92.9%	97.1%	94.3%	97.7%	104%	102%	93.1%	93%	96.8%	94.1%	92.3%	103%	91.8%	104%	95.9%	102%	103%	110%	92.6%	110%	98.4%	95%
CN1C(CCl)Nc2cc(Cl)c(S(N)(=O)=O)cc2S1(=O)=O (stereo not given) [methyclothiazide]	> 10 µM	> 10 µM	> 10 µM	> 10 µM	> 10 µM	0	0	0	0	0	104%	96.9%	101%	98.4%	102%	101%	103%	104%	103%	94.9%	94.3%	96.6%	94.8%	99.4%	99.7%	96.3%	96.1%	106%	104%	105%	103%	91.8%	97.9%	105%	108%
O=C(O)Cc1cccc2c(=O)cc(-c3ccccc3)oc12 [mitoflaxone]	> 10 µM	> 10 µM	> 10 µM	> 10 µM	> 10 µM	0	0	0	0	0	99.5%	98%	97.3%	102%	104%	86%	101%	89.6%	104%	112%	96.9%	99.8%	95.7%	94.9%	107%	98.3%	92.3%	93.2%	103%	114%	96%	102%	97%	95.8%	112%
NC/C(=C/F)CCc1ccc(F)cc1 [mofegiline]	> 10 µM	> 10 µM	> 10 µM	> 10 µM	> 10 µM	0	0	0	0	0	98.6%	99.3%	95.7%	96.2%	96.3%	89.5%	96.7%	85.8%	90.4%	92.4%	92.5%	102%	90.5%	91.7%	95%	98%	91.5%	87.9%	90%	97.4%	102%	97.7%	102%	104%	88.4%
Oc1ccc(OCc2ccccc2)cc1 [monobenzone]	> 10 µM	> 10 µM	> 10 µM	> 10 µM	> 10 µM	0	0	0	0	0	107%	96.9%	94.9%	102%	110%	99.2%	92.6%	103%	107%	88.3%	95.8%	97.4%	97.3%	100%	100%	91.6%	94.9%	109%	103%	90.2%	97.5%	95.5%	94.6%	98.9%	94.5%
CN(C(=O)/C=C/c1ccoc1)[C@@H]1CC[C@@]2(O)[C@H]3Cc4ccc(O)c5c4[C@@]2(CCN3CC2CC2)[C@H]1O5 [nalfurafine]	> 10 µM	> 10 µM	> 10 µM	> 10 µM	> 10 µM	0	0	0	0	0	100%	99.8%	100%	103%	105%	104%	92.9%	99%	107%	104%	90.6%	101%	89.5%	95.6%	102%	102%	104%	95.5%	97.7%	102%	92.2%	103%	106%	96.8%	91.3%
Cn1cc(C(=O)c2cccc3ccccc23)cc1C(=O)O [napirimus]	> 10 µM	> 10 µM	> 10 µM	> 10 µM	> 10 µM	0	0	0	0	0	104%	100%	101%	98.3%	98.4%	99.3%	92%	95.4%	96.5%	85.6%	92.9%	99.7%	95.2%	105%	99%	101%	97.9%	103%	99.8%	94.8%	98.7%	104%	100%	101%	104%
Cn1c(NCCN(CCO)CCCc2ccc([N+](=O)[O-])cc2)cc(=O)n(C)c1=O [nifekalant]	> 10 µM	> 10 µM	> 10 µM	> 10 µM	> 10 µM	0	1.8	0	0	0	95.1%	94.3%	98.9%	97.7%	99.4%	107%	96.7%	86.9%	90.8%	92.5%	89.8%	102%	91.6%	102%	104%	109%	106%	94%	86.1%	109%	96.2%	103%	104%	110%	95.3%
